The text below walks through data of US7145037B2, “Adamantane derivatives with neuroprotective, antidepressant and anti-ischaemic activities, and process for preparing them” (Rotta Research Laboraturium S.p.A., priority 2003, dated 2006).

Counter-ions that a name gives are not always drawn. Marks after values point to notes of the source that are not given here.

Broadly, the melting point is the temperature, or range, at which the solid turns liquid. As a reminder, the ED50 is the dose at which the effect has come halfway, by size or by number of responders.

For series [1], the system named is mouse. The series is described as follows: Swimming test (Porsolt) in the mouse. The class given is in vivo. The method, then: Process: The procedure is similar to that described by Porsolt et al. (Arch. Int. Pharmacodyn. 229, p. 327–336 (1977).
Naïve (unconditioned) mice are subjected to forced swimming for 15 minutes in a glass cylinder containing 20 cm of water at a temperature of 25° C. The period of immobility from the third to the sixth minute (inclusive) and the time to reach total immobility from the sixth to the fifteenth minute were measured. Total immobility is defined as the latent time required in order for the animal to remain immobile for at least 30 seconds. The compounds were administered orally 60 minutes before the test.

Series [2] addresses T1, NMDA receptor.
T1 construct: IC50, concentration displacing 50% of the ligand (MK-801) from the receptor; other: rat cortical membranes, H3-MK-801
Briefly: Binding of [3H]MK-801 to rat cortical synaptosomial membranes. Conditions: H3-MK-801, 45 min at 23° C., read-out: IC50, concentration displacing 50% of the ligand (MK-801) from the receptor.

Another series relates to rat hippocampus slices. The series is described as follows: Basal release of [3H]noradrenalin from rat hippocampus slices in perfusion. The series is classed as cell-based. The method, then:
(§1) The animals were sacrificed and the brains rapidly removed from the brain case and immediately transferred at 4° C. into artificial cerebrospinal fluid (aCSF) aerated with a gas mixture composed of 95% oxygen and 5% carbon dioxide. The brains were then sectioned at a temperature of 4° C. and the encephalic areas of interest (hippocampus and corpora striata) removed and immersed in the solution mentioned above.
(§2) Cerebral slices 400 μm thick were then prepared using a McIllwain “chopper”. The hippocampus slices were incubated with 0.08 μM of [^3H] noradrenalin and the striatum slices with 0.01 μM of [^3H] dopamine and/or with 0.09 μM of [^3H] choline at a temperature of 37° C. for 20 minutes. The slices labelled with [^3H] noradrenalin were incubated in the presence of 0.1 μM 6-nitroquipazine and 0.1 μM GBR 12909, which are selective inhibitors of the uptake of serotonin and dopamine, respectively, in order to prevent possible false labelling of serotoninergic and dopaminergic synaptic endings.
(§3) For the same reasons, the slices labelled with [^3H] dopamine were incubated in the presence of 0.1 μM 6-nitroquipazine and 0.1 μM nisoxetine, which are selective inhibitors of serotonin and noradrenalin uptake. […]
(§4) At the end of the experiment, the collected samples and the perfused slices (dissolved in toluene) were subjected to counting of the radioactivity present in each fraction and/or slice using a scintillator for liquid samples. The fractional release of tritiated neurotransmitters was calculated as the amount of radioactivity present in each fraction divided by the total radioactivity present in the slice at the moment at which it was collected. The ratios between the fractional release at a given moment of the perfusion and the fractional release in the first collected fraction were thus calculated for each slice. The effects of the compounds were expressed as a percentage of increase of the release of the neurotransmitters studied relative to the control slices perfused in the absence of drugs (Table 2).

Series [3] has as its system rat striatum slices. The series is described as follows: Basal release of [3H]dopamine from rat striatum slices in perfusion. The series is classed as cell-based. Conditions: inactive = at the concentration in parentheses. The method, then: as §1, §2, §3, §4
Series [4] concerns rat striatum slices. The series is described as follows: Basal release of [3H]acetylcholine from rat striatum slices in perfusion. The series is classed as cell-based. The note with it: inactive = at the concentration in parentheses. The method, then:
as §1, §2, §3, §4

Series [5] relates to NMDA receptor. The series is described as follows: Release of [3H]noradrenalin stimulated by NMDA in rat hippocampus slices. The series is classed as cell-based. Conditions: aCSF lacking Mg2+, 100 μM NMDA, read-out: IC50 for antagonizing the effect of 100 μM NMDA on [3H]noradrenalin release. The protocol: The preparation of the slices is analogous to that described previously. The slices were perfused in the presence of [^3H] noradrenalin with an aCSF lacking in Mg^2+ ions. After perfusion for 45 minutes to equilibrate the system, 7 fractions of 5 minutes each were collected. The test compounds were added to the perfusion liquid 10 minutes before starting the collection of the fractions, while 100 μM NMDA was added only to fraction 4, from the fifteenth minute after the start of collection.
At the end of the experiment, the radioactivity present was counted as described previously. For each sample, the percentage ratio between the fractional release in fraction 4 in the presence of NMDA and the fractional release in the first collected fraction was determined. The activity of the test drugs was expressed as a mean percentage value of the number of experiments performed relative to the percentage increase in the release of [^3H] noradrenalin into the NMDA-stimulated control chambers in the absence of antagonists.

In series [6] the test system is rat parieto-occipital cortex slices. Briefly: Release of [3H]D-aspartate evoked by 30 mM KCl under hypoglycaemic conditions in rat parieto-occipital slices. The note with it: read-out: IC50 for antagonizing the hypoglycaemia-induced increase in the release of [3H]D-aspartate. The series is classed as cell-based. The protocol:
This in vitro experimental model was designed to mimic a condition of […] and is a modification of the model reported by Zablocka B. and Domanska-Janik K., [NeuroReport 6, 85–88 (1994)].
Rat parieto-occipital cortex is removed and sectioned into 400 μm coronal slices. The cortical slices are incubated at 37° C. for 30 minutes with [^3H]D-aspartate and then, after washing for 45 minutes, stimulated for 5 minutes with a hypertonic potassium solution (30 mM). Once the basal conditions have been restored, the slices are perfused with a glucose-free medium for 20 minutes. The test compounds are at this point added to a standard medium containing glucose and perfused until the end of the experiment. 10 minutes from the end of the hypoglycaemic period, a further hypertonic potassium stimulation depolarizes the neuronal membrane, causing an approximately 75% increase in the release of [^3H]D-aspartate evoked under control conditions.

The test system of series [7] is mouse. Briefly: "Tail pinching" test in the mouse. The class given is in vivo. The note with it: for Immobility time: 5 minutes; for % effect vs control: immobility time; for ED50: oral, calculated ED50, read-out: ED50 (reduction of immobility time). The method, then: Process: The procedure is similar to that described by Steru et al. [Psychopharmacol. 85, p. 367-(1985)]. The animals are suspended by the tail 75 cm above the bench surface. The duration of immobility is measured over a period of 5 minutes: the animals are considered as being immobile only when they hang passively and completely motionless. The compounds were administered orally 30 minutes before the test.

The target in another series is NO-synthetase (NOS) (Oryctolagus cuniculus, UniProt G1SGE1). The series is described as follows: Inhibition of NO (nitrite) formation in rabbit articular chondrocytes stimulated with IL-1β. The series is classed as cell-based. The note with it: for IC50: nitrite formation, IL-1β 1 ng/ml, 48 hours, 95% confidence limits in parentheses, read-out: Rabbit articular chondrocytes % inhibition (IC50 × 10^−6M). The protocol: a) The inhibitory activity on the formation of NO, measured as NO2^− (nitrite), was studied in vitro on culture media of rabbit articular chondrocytes stimulated with the cytokine IL-1β (1 ng/ml) for 48 hours. For the preparation of the chondrocytes, the method described by Berenbaum et al. […] The cells were maintained under these conditions to the point of confluency (about 15 days), the medium being changed every 3 days. […] The stimulation lasted for 48 hours at 37° C. (incubation under air-7% CO2). Next, an assay of the nitrites was performed on the cell supernatant according to the method described by Green et al. [Anal. Biochem. 126, 131–138 (1982)].
NO-synthetase (NOS), sequence (G1SGE1 entry or part of it): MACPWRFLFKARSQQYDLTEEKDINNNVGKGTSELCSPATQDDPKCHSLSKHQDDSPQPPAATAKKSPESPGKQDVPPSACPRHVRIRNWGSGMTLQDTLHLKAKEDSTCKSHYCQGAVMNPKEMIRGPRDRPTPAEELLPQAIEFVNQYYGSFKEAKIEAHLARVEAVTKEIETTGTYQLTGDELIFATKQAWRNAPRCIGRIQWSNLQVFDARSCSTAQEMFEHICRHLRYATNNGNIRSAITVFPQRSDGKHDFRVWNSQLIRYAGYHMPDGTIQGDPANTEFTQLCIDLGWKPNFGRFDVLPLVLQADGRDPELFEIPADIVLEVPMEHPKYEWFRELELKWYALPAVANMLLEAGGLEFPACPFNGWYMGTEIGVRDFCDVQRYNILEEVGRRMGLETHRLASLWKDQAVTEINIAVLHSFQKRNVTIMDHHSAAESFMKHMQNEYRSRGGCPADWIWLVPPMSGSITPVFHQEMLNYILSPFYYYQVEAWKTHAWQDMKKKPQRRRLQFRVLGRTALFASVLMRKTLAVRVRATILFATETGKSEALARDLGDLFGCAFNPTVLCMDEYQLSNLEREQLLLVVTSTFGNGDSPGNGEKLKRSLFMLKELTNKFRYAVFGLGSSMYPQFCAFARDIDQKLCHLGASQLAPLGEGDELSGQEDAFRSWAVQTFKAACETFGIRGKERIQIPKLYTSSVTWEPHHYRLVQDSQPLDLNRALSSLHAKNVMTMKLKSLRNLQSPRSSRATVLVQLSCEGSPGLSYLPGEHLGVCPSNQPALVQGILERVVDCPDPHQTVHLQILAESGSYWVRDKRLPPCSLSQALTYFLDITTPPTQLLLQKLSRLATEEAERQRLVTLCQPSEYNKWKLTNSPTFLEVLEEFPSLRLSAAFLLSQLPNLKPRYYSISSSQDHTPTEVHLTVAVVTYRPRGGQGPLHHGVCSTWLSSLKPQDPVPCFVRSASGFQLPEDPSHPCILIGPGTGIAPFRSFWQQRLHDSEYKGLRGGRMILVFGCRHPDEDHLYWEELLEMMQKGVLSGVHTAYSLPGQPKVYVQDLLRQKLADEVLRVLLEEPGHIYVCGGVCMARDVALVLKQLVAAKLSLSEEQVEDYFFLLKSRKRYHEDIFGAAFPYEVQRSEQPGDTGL

[8] abbreviates: 3 mg/kg orally 60 minutes before the test.
Setting [9] is: 10 mg/kg orally 60 minutes before the test.
[10] abbreviates: 30 mg/kg orally 60 minutes before the test.
Setting [11] is: 1 mg/kg orally 30 minutes before the test.
[12] abbreviates: 10 mg/kg orally 30 minutes before the test.
The mark [13] stands for this setting: 0.1 mg/kg orally 60 minutes before the test.
Where [14] appears, read: 1 mg/kg orally 60 minutes before the test.

Compound `CC(=N)NCCC12CC3CC(CC(C3)C1)C2` (as salt: HCl) [Compound 1] registered a melting point of 243 °C.

`N=C(N)NCCC12CC3CC(CC(C3)C1)C2` (as salt: HCl) [Compound 3] came in with a melting point of 246 °C.

In the case of `CN(C)CCC=C1c2ccccc2CCc2ccccc21` [Amitryptiline, reference compound], the “Immobility in sec. (3–6 mins)” value in the series on mouse [1] (setting [8]) is 54.9 s; in the series with mouse [1] (setting [9]), 56.0 s; in the series with mouse [1] (setting [10]), 42.0 s. In addition, the “Latent time vs immobility in sec. (6–15 mins)” value in the series on mouse [1] (setting [8]) is 477.5 s; in the series on mouse [1] (setting [9]), 461.0 s; in the series with mouse [1] (setting [10]) it was 607.8** sec.

Turning to `CC(=N)NCCC12CC3CC(C)(CC(C)(C3)C1)C2` [Compound 2, N-[2-(3,5-dimethyl-1-adamantyl)ethyl]-acetamidine], the figures for the IC50 (on NMDA receptor [2]; in the series with NMDA receptor [5]; in [6]) were roughly 40 µM, 0.8 µM and 2.5 µM, respectively. Moreover, in the series on rat hippocampus slices, the “Basal release of [3H]NE on hippocampus slices: concentration increasing basal release by 100%” value was determined as 6 µM. Moreover, the “Basal release of [3H]DA on striatum slices: concentration increasing basal release by 100%” value in the series on rat striatum slices [3] stood at 2 µM. Further, the “Basal release of [3H]Ach on striatum slices: concentration increasing basal release by 100%” value with rat striatum slices [4] is “inactive”. The “Immobility time” value in the series on mouse [7] (0.3 mg/kg orally 30 minutes before the test) stood at 56.6 s; in the series on mouse [7] (setting [11]), 48.0 s; in the series with mouse [7] (3 mg/kg orally 30 minutes before the test) it was 42.6 s; in the series on mouse [7] (setting [12]) it was 35.1 s. The “% effect vs control” value amounted to 25.7% in the series with mouse [7] (0.3 mg/kg orally), 37.0% in the series with mouse [7] (1 mg/kg orally), 44.1% with mouse [7] (3 mg/kg orally) and 53.9% in the series on mouse [7] (10 mg/kg orally). The ED50 with mouse [7] is 6 mg/kg.

Turning to `CC12CC3CC(C)(C1)CC(CCNC(=N)N)(C3)C2` [Compound 4, N-[2-(3,5-dimethyl-1-adamantyl)ethyl]guanidine], the IC50 on NMDA receptor [2] was roughly 40 µM; with NMDA receptor [5], 0.5 µM; in series [6], 0.8 µM. In addition, the “Basal release of [3H]NE on hippocampus slices: concentration increasing basal release by 100%” value in the series with rat hippocampus slices stood at 15 µM. Further, the “Basal release of [3H]DA on striatum slices: concentration increasing basal release by 100%” value with rat striatum slices [3] turned out to be 8 µM. For the same compound, the “Basal release of [3H]Ach on striatum slices: concentration increasing basal release by 100%” value in the series on rat striatum slices [4] was found to be 20 µM. The “Immobility in sec. (3–6 mins)” value in the series with mouse [1] (setting [13]) was 39.3* sec; in the series on mouse [1] (setting [14]), 39.8* sec; in the series with mouse [1] (setting [9]), 42.4* sec. The “Latent time vs immobility in sec. (6–15 mins)” value with mouse [1] (setting [13]) was 353.3 s; in the series on mouse [1] (setting [14]), 450.8* sec; in the series with mouse [1] (setting [9]) it was 495.8* sec.

In the case of `N=C(NCCC12CC3CC(CC(C3)C1)C2)N[N+](=O)[O-]` [Compound 5], the melting point is 260 °C.

In the case of `CC12CC3CC(C)(C1)CC(CCNC(=N)N[N+](=O)[O-])(C3)C2` [Compound 6, N-[2-(3,5-dimethyl-1-adamantyl)ethyl]-nitroguanidine], at NO-synthetase (NOS), the IC50 turned out to be 80.4 µM.

Consider `CC12CC3CC(C)(C1)CC(CCNC(=N)C1CC1)(C3)C2` [Compound 7], for which the melting point was determined as 96 °C.

Turning to `COC(=O)[C@@H](N)CCCNC(=N)N[N+](=O)[O-]` [L-NAME], the IC50 on NO-synthetase (NOS) was 340 µM.

Take `CC12CC3CC(C)(C1)CC(N)(C3)C2` [Memantine, reference compound]: the figures for the IC50 (on NMDA receptor [2]; with NMDA receptor [5]; in [6]) were 80 µM, 1.6 µM and 7.5 µM, respectively. For the same compound, in the series with rat hippocampus slices, the “Basal release of [3H]NE on hippocampus slices: concentration increasing basal release by 100%” value was 130 µM. In addition, the “Basal release of [3H]DA on striatum slices: concentration increasing basal release by 100%” value with rat striatum slices [3] was “inactive (30 μM)”. Moreover, the “Basal release of [3H]Ach on striatum slices: concentration increasing basal release by 100%” value with rat striatum slices [4] was “inactive (100 μM)”. Moreover, the “Inhibition of the production of nitrite” value at NO-synthetase (NOS) (up to the maximum concentration tested (3×10^−4M)) is “entirely inactive”. For the same compound, the “Immobility time” value in the series on mouse [7] (0.1 mg/kg orally 30 minutes before the test) amounted to 49.9 s; with mouse [7] (setting [11]) it was 48.9 s; in the series on mouse [7] (setting [12]), 40.1 s. The “% effect vs control” value amounted to 36.8% in the series with mouse [7] (0.1 mg/kg orally), 38.0% with mouse [7] (1 mg/kg orally) and 49.2% with mouse [7] (10 mg/kg orally). Moreover, in the series on mouse [7], the ED50 was 24.9 mg/kg.
